Like-named read-outs stand apart in the source and are kept apart here.
Assays:
PTC in humans = conditions: cited from earlier work
HPTCs = conditions: similar experiments performed with HPTCs; cited from earlier work
[1] = test system: hiPSC-derived HPTC-like cells
[2] = test system: iPS(Foreskin)-4-derived d8 HPTC-like cells
OCT2 = OCT2 (Homo sapiens, UniProt O15244); conditions: co-incubation of 100 μg/ml rifampicin with 2 mM cimetidine, iPS(Foreskin)-4-derived d8 cells
[3] = test system: hiPSC-derived HPTC-like cells; experiment: nephrotoxicology in vitro model based on interleukin-6/interleukin-8 expression (Example 1)
[4] = 1 μg/ml, overnight (16 h), qPCR, normalized to vehicle control (=1), mean +/- s.d., n=3
[5] = 10 μg/ml, overnight (16 h), qPCR, normalized to vehicle control (=1), mean +/- s.d., n=3
[6] = 100 μg/ml, overnight (16 h), qPCR, normalized to vehicle control (=1), mean +/- s.d., n=3
[7] = 1,000 μg/ml, overnight (16 h), qPCR, normalized to vehicle control (=1), mean +/- s.d., n=3

OCT2, sequence (O15244 whole entry): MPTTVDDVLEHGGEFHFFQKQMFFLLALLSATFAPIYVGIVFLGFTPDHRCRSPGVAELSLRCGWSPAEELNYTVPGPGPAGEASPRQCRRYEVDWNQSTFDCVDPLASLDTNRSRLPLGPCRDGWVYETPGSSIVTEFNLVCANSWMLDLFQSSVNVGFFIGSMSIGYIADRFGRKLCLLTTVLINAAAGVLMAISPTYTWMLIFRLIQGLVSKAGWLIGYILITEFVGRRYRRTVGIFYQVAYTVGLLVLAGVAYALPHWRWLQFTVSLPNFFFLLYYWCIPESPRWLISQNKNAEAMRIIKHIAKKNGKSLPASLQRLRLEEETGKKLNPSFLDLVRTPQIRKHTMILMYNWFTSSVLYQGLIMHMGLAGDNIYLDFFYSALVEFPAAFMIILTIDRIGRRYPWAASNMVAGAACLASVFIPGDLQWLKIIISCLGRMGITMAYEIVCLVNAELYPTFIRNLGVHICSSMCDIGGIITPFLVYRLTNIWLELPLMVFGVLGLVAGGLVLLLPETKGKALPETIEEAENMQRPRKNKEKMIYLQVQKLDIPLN

IL6 Expression Levels ([2]; human, 16 h, 1 μg/ml) | IL8 Expression Levels ([2]; human, 16 h, 1 μg/ml) | IL6 Expression Levels ([2]; human, 16 h, 10 μg/ml) | IL8 Expression Levels ([2]; human, 16 h, 10 μg/ml) | IL6 Expression Levels ([2]; human, 16 h, 100 μg/ml) | IL8 Expression Levels ([2]; human, 16 h, 100 μg/ml) | IL6 Expression Levels ([2]; human, 16 h, 1000 μg/ml) | IL8 Expression Levels ([2]; human, 16 h, 1000 μg/ml) | Compound | nephrotoxicity / toxicity for PTC in humans (PTC in humans) | also measured
– | – | – | – | – | – | – | – | OCCO [Ethylene glycol] | nephrotoxicants that do not damage PTC directly | –
– | – | – | – | – | – | – | – | CC(=O)OCC1=C(C(=O)O)N2C(=O)[C@@H](NC(=O)CCC[C@@H](N)C(=O)O)[C@H]2SC1 [Cephalosporin C] | directly toxic for PTC | –
– | – | – | – | – | – | – | – | Gentamicin | directly toxic for PTC | cell numbers after treatment (HPTCs): a decrease in cell numbers was not observed
– | – | – | – | – | – | – | – | CC1=C2C(=CO[C@H](C)[C@H]2C)C(O)=C(C(=O)O)C1=O [Citrinin] | directly toxic for PTC | increase of IL6 expression ([2]; human): ~6 fold; increase of IL8 expression ([2]; human): no increase in IL8 expression was observed
– | – | – | – | – | – | – | – | Cl[C@H]1[C@H](Cl)[C@@H](Cl)[C@@H](Cl)[C@H](Cl)[C@H]1Cl [Lindane] | nephrotoxicants that do not damage PTC directly | –
1.3 ± 0.1 | 0.5 ± 0.1 | 1.3 ± 0.1 | 0.6 ± 0.1 | 1.4 ± 0.1 | 0.9 ± 0.3 | 2.7 ± 0.4 | 25.5 ± 1.5 | NC[C@H]1O[C@H](O[C@H]2[C@H](O)[C@@H](O[C@H]3O[C@H](CO)[C@@H](O)[C@H](N)[C@H]3O)[C@H](N)C[C@@H]2N)[C@H](N)C[C@@H]1O [Tobramycin] | – | –
– | – | – | – | – | – | – | – | CN/C(=N/CCSCc1nc[nH]c1C)NC#N [cimetidine] | – | reduction of rifampicin-induced IL6 expression (OCT2): 40%; reduction of rifampicin-induced IL8 expression (OCT2): 26%
6.2 ± 0.7 | 7.4 ± 1.4 | 6.4 ± 0.3 | 9.2 ± 1.4 | 9.2 ± 1.2 | 18.3 ± 2.2 | 1.1 ± 0.2 | 5.7 ± 0.5 | O=c1[nH]cc(F)c(=O)[nH]1 [5-Fluorouracil] | – | –
1.4 ± 0.1 | 1.1 ± 0.4 | 1.5 ± 0.1 | 0.5 ± 0.1 | 1.2 ± 0.3 | 0.2 ± 0.0 | 1.0 ± 0.1 | 0.2 ± 0.0 | NC(=O)c1ncn([C@@H]2O[C@H](CO)[C@@H](O)[C@H]2O)n1 [Ribavirin] | – | –
– | – | – | – | – | – | – | – | [Cl-].[Li+] [Lithium chloride] | nephrotoxicants that do not damage PTC directly | –
– | – | – | – | – | – | – | – | C[n+]1ccc(-c2cc[n+](C)cc2)cc1 [Paraquat] | directly toxic for PTC | cell numbers after treatment (HPTCs): a decrease in cell numbers was not observed; IL-6 expression after treatment [3]: increase
– | – | – | – | – | – | – | – | CC(=O)[O-].CC(=O)[O-].[Pb+2] [Lead acetate] | – | IL6 Expression Levels [2, 4]: 1.3 ± 0.3; IL8 Expression Levels [2, 4]: 0.4 ± 0.2; IL6 Expression Levels [2, 5]: 1.2 ± 0.3; IL8 Expression Levels [2, 5]: 1.3 ± 0.1; IL6 Expression Levels [2, 6]: 1.5 ± 0.1; IL8 Expression Levels [2, 6]: 5.0 ± 0.8; IL6 Expression Levels [2, 7]: 4.3 ± 0.8; IL8 Expression Levels [2, 7]: 29.4 ± 5.1

Compound | IL6 Expression Levels ([2]; human, 16 h, 1 μg/ml) | IL8 Expression Levels ([2]; human, 16 h, 1 μg/ml) | IL6 Expression Levels ([2]; human, 16 h, 10 μg/ml) | IL8 Expression Levels ([2]; human, 16 h, 10 μg/ml) | IL6 Expression Levels ([2]; human, 16 h, 100 μg/ml) | IL8 Expression Levels ([2]; human, 16 h, 100 μg/ml) | IL6 Expression Levels ([2]; human, 16 h, 1000 μg/ml) | IL8 Expression Levels ([2]; human, 16 h, 1000 μg/ml) | nephrotoxicity / toxicity for PTC in humans (PTC in humans) | also measured
CO[C@H]1/C=C/O[C@@]2(C)Oc3c(C)c(O)c4c(O)c(c(/C=N/N5CCN(C)CC5)c(O)c4c3C2=O)NC(=O)/C(C)=C\C=C\[C@H](C)[C@H](O)[C@@H](C)[C@@H](O)[C@@H](C)[C@H](OC(C)=O)[C@@H]1C [Rifampicin] | 5.8 ± 0.9 | 2.5 ± 0.4 | 4.5 ± 0.3 | 3.4 ± 0.3 | 2.3 ± 0.2 | 9.7 ± 0.3 | 9.3 ± 0.6 | 18.2 ± 1.2 | – | IL-6 expression after treatment [1]: increase; IL-8 expression after treatment [1]: increase; increase of IL6 expression ([2]; human, 16 h, 100 μg/ml): ~17 fold; increase of IL8 expression ([2]; human, 16 h, 100 μg/ml): ~18 fold

— patent US10351827B2, “Method for differentiating induced pluripotent stem cells into renal proximal tubular cell-like cells” (priority 2013, dated 2019)
